We go through ten compounds from patent US20260069656A1, “Nutritive Polypeptides and Formulations Thereof, and Methods of Production and Use Thereof” (Axcella Health Inc., priority 2013, published 2026).

One data set deals with Zucker fatty rats. The experiment in a line: OGTT in Zucker fatty rats, SEQID-00105 vs alogliptin vs combination (glucose 2 g/kg). The data set is classed as in vivo, rat. The procedure: In another experiment, an OGTT was performed in 24, fasted, male Zucker fatty rats with indwelling jugular vein catheters (JVC) to assess the acute effects of nutritive protein dosing on glycemic control as well as insulin and GLP-1 levels. The capacity of SEQID-00105 to improve glucose control was tested by comparing the blood glucose excursion of SEQID-00105 to alogliptin to SEQID-00105+alogliptin to vehicle in the context of an oral glucose tolerance test. All rodents were approximately 10-11 weeks old, weighed average of approximately 430 g and acclimated for 4-5 days prior to testing. Prior to treatment, all rats were fasted overnight for fourteen hours. […] N=6 rats per treatment group. The error bars shown are the standard errors of the mean. Each group was compared post hoc on GraphPad Prism 6, two-way ANOVA, Dunnett's multiple comparisons test first comparing within each group to the fasting glucose concentration, followed by a comparison of each time point to vehicle. […] The integrated area under curve (AUC) was calculated on Microsoft Excel using the Linear-Log Trapezoidal Method and two-way ANOVA and Dunnett's multiple comparisons tests was conducted on GraphPad Prism 6.03.

A further data set relates to healthy subjects. The following applies: oral supplementation vs. control; cited from earlier work.
The test system of a further data set is burn injury. The following applies: 0.35 g/kg, cited from earlier work.
In the next data set the test system is 5-HT production. The following applies: oral intake of free Tryptophan; cited from earlier work.
Data set [1] has as its system mTORC1 (phosphorylation of ribosomal protein S6, rps6). The experiment in a line: AlphaScreen SureFire Ribosomal Protein S6 assay in primary rat skeletal muscle cells. In kind it is cell-based.
Text: Primary Rat Skeletal Muscle Cell (RSKMC) culture medium was purchased from Cell Applications (Catalog number: R150-500, San Diego, CA). Starvation medium DMEM/F12 was bought from Sigma (Catalog number: D9785, St. Louis, MO). […] Fetal bovine serum (FBS) and other growth factors were obtained from Cell Applications (Catalog number: R151-GS, San Diego, CA). Tissue culture flasks and clear bottom 96-well tissue culture plates were purchased from Corning Incorporated (Catalog number: 430641 and 353072, respectively, Corning, NY). Trypsin/EDTA was obtained from Life Technology (Catalog number: 25200, Grand Island, NY). DPBS and HBSS were also purchased from Life Technologies (Catalog number: 14190, 14175, respectively). AlphaScreen® SureFire® Ribosomal Protein S6 Assay Kits was obtained from Perkin Elmer (Catalog number: TGRS6P2S10K).
Primary Rat Skeletal Muscle Cell (RSKMC) culture. RSKMC were isolated using protocol described herein and cryopreserved in liquid nitrogen. The cells were also maintained in RSKMC medium (Cell Applications) in T75 tissue flask in a 37° C., 5% CO2 tissue culture incubator (Model 3110, Thermo Fisher Scientific). The cells were split every three day when they reached ˜90% confluency. RSKMC cells were cultured in RSKMC medium in T75 tissue flask to 100% confluency. The culture medium was aspirated from the culture flask and rinsed once with 10 ml of DPBS, and then 1.5 ml of 0.25% trypsin/EDTA was added to the cells. After the cells were detached from the flask, 10 ml of culture medium were added. The medium was pipetted up and down with a 10 ml pipet to detach the cells from the flask. The cells were then seeded into clear bottom 96-well tissue culture plates at a density of 50,000 cells per well. Following overnight culture in a 37° C., 5% CO2 incubator, the cells were starved over a period of 4 hours with starvation DME/F12 medium without FBS and leucine in a 37° C., 5% CO2 tissue culture incubator, then starved for another hour incubation with Hank's Buffered Salt Solution (HBSS). […]
Data set [2] in a line: Intact half-life during simulated gastric fluid (SGF) digestion. Conditions: SGF pH 1.5, pepsin:polypeptide 1:20 w/w, 37° C.; produced in E. coli unless otherwise noted.
Experimental: Nutritive polypeptide half-life during simulated digestion. One metric for quantifying the breakdown of polypeptides from an intact form to smaller peptides is the intact half-life. In this experiment the nutritive polypeptide was exposed to a series of proteases that are active in the stomach (pepsin) and intestine (trypsin and chymotrypsin), and the presence of intact protein was measured over time. Specifically, the nutritive polypeptide was first treated at a concentration of 2 g/L with simulated gastric fluid (SGF) (0.03 M NaCl, titrated with HCl to pH 1.5 with a final pepsin: polypeptide ratio of 1:20 w/w) at 37° C. Time points were sampled from the reaction and quenched by addition of 0.2 M Na2CO3. […] Time points were sampled from the reaction and quenched by addition of Trypsin/Chymotrypsin Inhibitor (Sigma) solution until 240 min.
Time point samples were analyzed for intact protein by chip electrophoresis, polyacrylamide gel electrophoresis, or western blot. For chip electrophoresis (Labchip GX II), samples were analyzed using a HT Low MW Protein Express LabChip® Kit (following the manufacturer's protocol). A protein ladder was loaded every 12 samples for molecular weight determination (kDa) and quantification. For polyacrylamide gel electrophoresis, samples (1 μg) were separated on a NuPAGE® Novex® Bis-Tris Precast gel (Life Technologies) according to the manufacturer's protocol. The gel was stained using SimplyBlue™ SafeStain (Invitrogen) and imaged using a Chemidoc XRS+ (BioRad) or transferred onto nitrocellulose membranes using the iBlot® Dry Blotting System (Life Technologies) and iBlot® Western Detection Kit (Life Technologies) according to the manufacturer's protocol. Proteins were detected by blotting with Anti-His [C-term]-HRP antibody diluted 3:5000 in Blok™-PO Blocking Buffer using the SNAP i.d.® Protein Detection System (Millipore) according to the manufacturer's protocol. Blots were treated with Luminata Classico Western HRP Substrate (Millipore) according to the manufacturer's protocol and imaged using chemiluminescent detection on the Molecular Imager® Gel Doc™ XR+ System (Bio-Rad). Quantification of intact protein was determined by densitometry using ImageLab (BioRad). For all analysis methods the relative concentration of the polypeptide at each time point (if detected) was plotted overtime and fit to an exponential curve to calculate the intact half-life.
Specifically, the t=0 (enzyme-free control) and t=2 min samples from the SGF digest were analyzed for intact protein as described by chip electrophoresis, SDS-PAGE, western blot, and/or LC-MS/MS. Relative quantities of polypeptides at each time point were determined and the percentage of intact protein remaining at t=2 was determined.
Data set [3] can be described thus: Thermostability, ProteoStat Thermal Shift Stability Kit, temperature of aggregation. The data set is classed as physicochemical. Conditions: pH 7.1; heated from 25° C. to 95° C. The procedure:
Thermostability. The thermostability of proteins in a buffer cocktail of Citric Acid and Dibasic Sodium Phosphate over a pH range of 2.8 to 7.1 (preparation described above in Table E31B) was determined using the ProteoStat® Thermal Shift Stability Kit (Enzo Life Sciences) according to the manufacturer's standard protocol. Briefly, protein solutions (˜10 mg/ml) containing 1× ProteoStat TS Detection Reagent were heated from 25° C. to 95° C. at a rate of 0.5° C. per 30 sec using a real-time PCR (rtPCR) thermocycler (BioRad) equipped with a plate reader (SynergyMx, Biotek) while monitoring the fluorescence with a Texas Red filter.

As to `Cn1c(=O)cc(N2CCC[C@@H](N)C2)n(Cc2ccccc2C#N)c1=O` [Alogliptin], the “glucose AUC vs vehicle” value with Zucker fatty rats (0 to 120 minutes, P=0.0051) is “significantly less than vehicle”; with Zucker fatty rats (0 to 240 minutes, P=0.0054), “significantly less than vehicle”. The “blood glucose vs vehicle” value with Zucker fatty rats (30 minutes following glucose challenge) is recorded as “significantly lower blood glucose than vehicle”; with Zucker fatty rats (60 minutes following glucose challenge), “significantly lower than vehicle”.
On to `N=C(N)NCCC[C@H](N)C(=O)O` [Arginine], for which the “increase in collagen deposition at wound sites” value with healthy subjects was 2.4 ×.
With `NC(=O)CC[C@H](N)C(=O)O` [Glutamine], the “decrease in Lactulose/mannitol ratio” value in the data set with burn injury (after 3 days, vs 5.5× decrease) was 8.8 ×. In addition, in the data set on burn injury, the “reduction in hospital stay” value is 6 days.
`N[C@@H](Cc1c[nH]c2ccccc12)C(=O)O` [Tryptophan]: the “increase of 5-HT production” value in the data set on 5-HT production is listed as 2 fold.
Turning to `CC(C)C[C@H](N)C(=O)O` [leucine], in data set [1] (primary RSkMC, complete amino acid medium and minimal 12 amino acid mixture), the “phosphorylation of rps6” value is “stimulates phosphorylation of rps6 in primary RSkMC in a dose-dependent manner”. Besides, in data set [1] (primary RSkMC, different Leucine concentrations), the “phosphorylation of rps6 (relative alphascreen signal)” value is given as “stimulates phorphorylation of rps6 in primary RSkMC in a dose-dependent manner”. Also, the “mTOR RPS6 pathway stimulation” value in data set [1] (primary cells from Soleus, gastrocnemius and extensor digitorum longus) is recorded as “stimulates mTOR RPS6 pathway using isolated primary cells in a dose dependent manner”.
In the case of “SEQID-00143: nutritive polypeptide (LYLEEVSKNLVEINPLKLEVKAKPWFVYTPMHGVGFDIFSTIVKKTLCLVEGK; listed as Saccharomyces cerevisiae)”, the “SGF Half-life (t½)” value in data set [2] is 18 s.
Same read-out and setting: for “SEQID-00212: nutritive polypeptide (LEEAKKKLLKDVEVLSQRLEEKALAYDKLEKTKTRLQQELDDLLVDLDHQ; listed as Bos taurus)” the value was 18 s; for “SEQID-00215: nutritive polypeptide (KKLLKDVEVLSQRLEEKALAYDKLEKTKTRLQQELDDLLVDLDHQRQIVSNLEKK; listed as Bos taurus)”, 120 s; for “SEQID-00218: nutritive polypeptide (GTIENLEEAKKKLLKDVEVLSQRLEEKALAYDKLEKTKTRLQQELDDLLVDLDHQ; listed as Bos taurus)”, 360 s.
Take “SEQID-00237: nutritive polypeptide (EEDKVNTLTKAKTKLEQQVDDLEGSLEQEKKLRMDLERAKRKLEGDLKLA; listed as Bos taurus)”: the “Tagg (pH 7.1)” value in data set [3] is on record as 45. Moreover, the “SGF Half-life (t½)” value in data set [2] is 36 s.
